One test relates to conscious rats. The experiment in a line: Ringer's solution time control during chronic infusion of porcine RLX. The test is classed as in vivo, rat. Conditions: RLX 4 μg/hour s.c. day 5. The protocol:
At least 7 days after the implantation of vascular and bladder catheters, osmotic minipumps containing either porcine RLX (4 μg/hour) or vehicle (Ringer's solution) were implanted in intact, female rats (n=7 and 6 rats, respectively). Renal function and MAP were measured on day 5 of relaxin infusion (three 30-minute urine and midpoint blood collections). Next, an infusion of L-NAME (2 μg/minute, a substrate competitive inhibitor of NO synthase) was administered intravenously (i.v.) by infusion pump (Model 200, KD Scientific, Boston, Mass.). Four 1-hour urine collections with midpoint blood samples were collected for the assessment of GFR, ERPF, and ERVR during the L-NAME administration. Identical procedures were performed on additional animals chronically administered porcine RLX (n=5) or vehicle (n=5), except that ANG II (3 ng/minute) was infused rather than L-NAME. Finally, another four, age-matched control rats were administered Ringer's solution instead of either L-NAME or ANG II on day 5 of porcine RLX infusion.
Another group of rats chronically treated with porcine RLX was administered Ringer's solution instead of L-NAME or ANG II, and thus served as time controls. Neither MAP nor any of the renal parameters were consistently altered over the 6 hours or so of vehicle infusion, as shown in Table 3. Values are provided as mean±SEM. Relaxin, RLX. n=4 rats. Ringer's solution was infused at the same flow rate as L-NAME (Table 1) or ANG II (Table 2), 12.5 μl/min. RLX was infused at 4 μg/hour by osmotic minipump s.c.

The subject of a further test is intact, female rats. The experiment in a line: Chronic infusion of purified porcine RLX or rhRLX: MAP and renal function in conscious rats. The test is classed as in vivo, rat. Conditions: chronic infusion 4 μg/hour. An excerpt: Long-Evans female rats aged 10-14 weeks were purchased from Harlan Sprague-Dawley (Frederick, Md.). They were fed PROLAB RMH 2000 diet containing 0.48% sodium (PME Feeds Inc., St. Louis, Mo.) and provided water ad libitum. To prepare the rats for experimental procedures, they were trained for several hours in a Plexiglas restraining cage (Braintree Scientific Co., Braintree, Mass.) on at least five different occasions before surgical intervention. These cages afforded sufficient space for grooming of the face and front paws while preventing the rat from turning around. Thus, accurate timed-urine collections and blood samplings were made possible from the chronically implanted bladder and vascular catheters, respectively. Rats failing to habituate to the cage were eliminated from the study (<1%). All animal procedures were approved by the Institutional Animal Care and Use Committee of the Magee-Womens Research Institute.
The details of the surgical procedures have been previously described. See, e.g., Conrad (1984) Kidney Int. 26:24-29; and Danielson and Conrad (1995) J. Clin. Invest. 96:482-490. […] The bladder catheter, a silastic-covered stainless steel cannula, was sewn into the urinary bladder with a purse-string suture and exteriorized through the ventral abdominal wall. This catheter was then plugged allowing the animal to urinate through the urethra while in her home cage. In the ovariectomized and sham ovariectomized animals, the ovaries were first ligated and then excised, or briefly manipulated, respectively, via a small incision made in the lateral abdominal wall immediately after the insertion of vascular and bladder catheters. All surgeries were conducted using aseptic technique. At least a 7-day recovery period was allowed before experimentation.
For chronic infusion of relaxin, an osmotic minipump was inserted subcutaneously (s.c.) in the back of the animal under ether anesthesia. After shaving and cleaning the skin with alcohol and betadine, a small incision was made and the minipump containing either recombinant human relaxin (rhRLX), purified porcine relaxin (RLX), or vehicle was inserted. Then the incision was closed with surgical staples. The model 2001 and 2ML1 osmotic minipumps (Alza Co., Palo Alto, Calif.) were used for the purified porcine RLX and rhRLX, respectively.
At the beginning of each experiment, immediately after opening the arterial catheter and before infusion of fluids, 100 μl of blood was collected into a heparinized tube. […] The hematocrit was also routinely determined on these midpoint blood samples. […] MAP, GFR, ERPF, and ERVR were assessed on days 2 and 5 of the infusion, and 5-12 days after depletion of the 7-day minipump. […] Circulating relaxin concentrations of 20-40 ng/mL have been measured in rats of 12-14 gestational days. […]

In test [1] the test system is Rat aortic adventitial fibroblasts. The experiment in a line: Collagen and fibronectin expression by adventitial fibroblasts. Type of test: cell-based. Conditions: rhRlx 10 ng/ml. The protocol:
Aortic adventitial fibroblasts from normal adult Sprague/Dawley rats were explanted by carefully dissecting the adventitia away from the media and culturing 1 mm^3 pieces in Dulbecco's modified Eagles Medium (DMEM), plus 10% bovine fetal calf serum. When cultures were confluent, fibroblasts were dispersed with trypsin and passaged once prior to use in experiments. Fibroblasts were seeded at 10^5 cells/cm^2 in DMEM+10% FBS in 48-well plates for experiments and assayed for collagen and fibronectin expression, as previously described (Unemori et al. (1996) J. Clin. Invest. 98:2739-2745). […] Half of the cultures were also treated simultaneously with 10 ng/ml of rhRlx. Proteins were biosynthetically labeled with ^3H-proline (25 μCi/ml) (Amersham Corp., Arlington Heights, Ill.), in the presence of ascorbate (50 μg/ml) and β-aminopropionitrile (80 μg/ml), and conditioned media collected 24 hours later. Media were electrophoresed on SDS-PAGE, and the density of collagen and fibronectin bands was determined by densitometric scanning using a digital imaging system (Alpha Innotech Corp, San Leandro, Calif.).

[2] abbreviates: Baseline before Ringer's solution.
Where [3] appears, read: Ringer's solution 12.5 μl/min, 60 min.
The mark [4] stands for this setting: Ringer's solution 12.5 μl/min, 120 min.
The mark [5] stands for this setting: Ringer's solution 12.5 μl/min, 180 min.
Setting [6] is: Ringer's solution 12.5 μl/min, 240 min.
Where [7] appears, read: days 2 and 5, rhRLX significant only at day 5.

In the case of “Porcine RLX: lyophilized, purified porcine relaxin (Sherwood and O'Byrne 1974), dissolved in Ringer's solution”, in the test with conscious rats (setting [2]), the ERPF is reported as 12,927, the ERVR was 5.93, the GFR was found to be 2997 and the MAP worked out at 119. In addition, in the test with conscious rats (setting [3]), the ERPF was 12,630, the ERVR was found to be 6.19, the GFR was determined as 3008 and the MAP is listed as 123. Also, in the test with conscious rats (setting [4]), the ERPF was 12,347, the ERVR amounted to 6.40, the GFR amounted to 3086 and the MAP stood at 121. For the same substance, in the test with conscious rats (setting [5]), the ERPF is 12,353, the ERVR came to 6.52, the GFR is 3077 and the MAP is listed as 122. Further, in the test with conscious rats (setting [6]), the ERPF is listed as 12,090, the ERVR is 6.53, the GFR was found to be 3223 and the MAP was determined as 121. For the same substance, the “effect on MAP” value in the test with intact, female rats (days 2 and 5 (FIG. 1A)) is “did not significantly change”. In the test on intact, female rats (setting [7]), the “effect on ERPF” value is “marked increase”, the “effect on ERVR” value is given as “reciprocal reduction” and the “effect on GFR” value is on record as “marked increase”.
As for “rhRLX: recombinant human relaxin, identical in amino acid sequence to the product of the human H2 gene; A chain of 24, B chain of 29 amino acids”, in test [1], the “decrease of TGF-β-induced fibronectin over-expression” value was 28±6% and the “inhibition of TGF-β-induced collagen over-expression” value turned out to be 21±5%.

Values taken from US6723702B2, “Use of relaxin treat diseases related to vasoconstriction” (RAS Medical, Inc., priority 2000, dated 2004).
